Test results as given in PMC5674860, “A novel, highly efficient β-glucosidase with a cellulose-binding domain: characterization and properties of native and recombinant proteins” (Biotechnology for Biofuels, 2017).

What was measured:
Format in all cases: biochemical
BGL-2T* [1] = biological target: T1, BGL-2T* (Talaromyces amestolkiae, UniProt A0A186NAE7); experiment: glucose release (Glucose-TR kit), Lineweaver-Burk; details: 100 mM sodium acetate pH 4, optimal temperature (70 °C), BSA; read-out: K m (mM) / BGL-2T*
T1 construct: gene bgl2; recombinant truncated form lacking linker and CBD; stop codon in retained third intron; pPIC9, Pichia pastoris KM71, secreted; monomer
T1 sequence (A0A186NAE7 1-700 limits assumed): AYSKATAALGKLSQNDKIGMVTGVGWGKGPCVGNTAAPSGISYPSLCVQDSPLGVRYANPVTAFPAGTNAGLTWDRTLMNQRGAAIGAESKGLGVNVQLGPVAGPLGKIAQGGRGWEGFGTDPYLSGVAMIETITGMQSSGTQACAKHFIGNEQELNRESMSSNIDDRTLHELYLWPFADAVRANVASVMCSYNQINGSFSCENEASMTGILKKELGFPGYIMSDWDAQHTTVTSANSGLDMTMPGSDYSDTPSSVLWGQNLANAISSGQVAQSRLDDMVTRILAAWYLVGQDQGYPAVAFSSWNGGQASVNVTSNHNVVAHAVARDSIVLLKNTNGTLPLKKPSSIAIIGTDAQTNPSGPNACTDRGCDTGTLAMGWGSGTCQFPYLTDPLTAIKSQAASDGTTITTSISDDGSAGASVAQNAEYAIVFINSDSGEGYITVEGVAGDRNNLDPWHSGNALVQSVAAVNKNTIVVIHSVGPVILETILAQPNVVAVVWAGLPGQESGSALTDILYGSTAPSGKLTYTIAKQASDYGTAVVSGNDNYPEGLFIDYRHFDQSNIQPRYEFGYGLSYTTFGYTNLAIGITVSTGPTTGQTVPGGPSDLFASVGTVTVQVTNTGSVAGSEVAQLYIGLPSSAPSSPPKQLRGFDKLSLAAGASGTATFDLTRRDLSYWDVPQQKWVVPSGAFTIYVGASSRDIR
Description: glucose release (Glucose-TR kit), Lineweaver-Burk on BGL-2T*

BGL-2T* [2] = biological target: T1, BGL-2T*; experiment: p-nitrophenol release at […] nm, Lineweaver-Burk; details: acetate buffer, optimal pH (3-4) and temperature (70 °C), BSA; read-out: K m (mM) / BGL-2T*
BGL-2T* [3] = biological target: T1, BGL-2T*; experiment: o-nitrophenol release, Lineweaver-Burk; details: acetate buffer, optimal pH (3-4) and temperature (70 °C), BSA; read-out: K m (mM) / BGL-2T*
Description: o-nitrophenol release, Lineweaver-Burk on BGL-2T*

OC[C@H]1O[C@@H](O[C@H]2[C@H](O)[C@@H](O)[C@H](O[C@H]3[C@H](O)[C@@H](O)[C@H](O[C@H]4[C@H](O)[C@@H](O)[C@H](O[C@H]5[C@H](O)[C@@H](O)C(O)O[C@@H]5CO)O[C@@H]4CO)O[C@@H]3CO)O[C@@H]2CO)[C@H](O)[C@@H](O)[C@@H]1O (some centres unmarked) [Cellopentaose] showed a Km (BGL-2T* [1]) of 0.68 ± 0.01 mM.

With OC[C@H]1O[C@@H](O[C@H]2[C@H](O)[C@@H](O)[C@H](O[C@H]3[C@H](O)[C@@H](O)C(O)O[C@@H]3CO)O[C@@H]2CO)[C@H](O)[C@@H](O)[C@@H]1O (some centres unmarked) [Cellotriose] the Km (BGL-2T* [1]) was 1.42 ± 0.06 mM.

OC[C@H]1O[C@@H](O[C@H]2[C@H](O)[C@@H](O)[C@H](O[C@H]3[C@H](O)[C@@H](O)[C@H](O[C@H]4[C@H](O)[C@@H](O)C(O)O[C@@H]4CO)O[C@@H]3CO)O[C@@H]2CO)[C@H](O)[C@@H](O)[C@@H]1O (some centres unmarked) [Cellotetraose] was tested, and the Km (BGL-2T* [1]) was 0.49 ± 0.03 mM.

O=[N+]([O-])c1ccc(O[C@@H]2O[C@H](CO)[C@@H](O)[C@H](O)[C@H]2O)cc1 [pNPG, p-nitrophenyl-β-D-glucopyranoside] gave a Km (BGL-2T* [2]) of 0.34 ± 0.02 mM.

O=[N+]([O-])c1ccccc1O[C@@H]1O[C@H](CO)[C@@H](O)[C@H](O)[C@H]1O [oNPG, o-nitrophenyl-β-D-glucopyranoside] showed a Km (BGL-2T* [3]) of 0.67 ± 0.04 mM.
